Measured values taken from publication PMC8164773 (European Journal of Medicinal Chemistry, 2021).

Legend:
[1] = system: SARS-CoV-2; assay type: cell-based; conditions: read-out: EC50 +CP
[2] = Solubility studies of bisulfite prodrugs in H2O; assay type: physicochemical; conditions: aqueous media, 25 °C

SMILES	EC50 [1] [nM]	increase in molar solubility compared to GC376 [2]
COc1cccc2[nH]c(C(=O)N[C@@H](CC3CC3)C(=O)N[C@H](C=O)C[C@@H]3CCNC3=O)cc12 [1k]	270 ± 400	
CC(C)C[C@H](NC(=O)OCc1ccccc1)C(=O)N[C@@H](C[C@@H]1CCNC1=O)C(O)S(=O)(=O)[O-].[K+] (some centres unmarked) [3a]		approximately 30%
